In PubChem BioAssay (NCI):
Values joined by “and” are separate entries in the source; they are usually repeats but may differ in a detail not shown here. Identical values can stand only once.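 Cultured in 96-well plates, cells were exposed to test compound for 48 hours across five concentrations. GI50 marks 50% less growth. TGI: total growth inhibition.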

Key:
Experiment in all cases: NCI anticancer screen, dose series, 48 h
M14 melanoma = system: M14 melanoma
SR leukemia = system: SR leukemia
RPMI-8226 leukemia = system: RPMI-8226 leukemia
OVCAR-5 ovarian = system: OVCAR-5 ovarian
HL-60(TB) leukemia = system: HL-60(TB) leukemia
MDA-MB-231 breast = system: MDA-MB-231 breast
SF-268 CNS = system: SF-268 CNS
MDA-N = system: MDA-N
SW-620 colon = system: SW-620 colon
PC-3 prostate = system: PC-3 prostate
HT29 colon = system: HT29 colon
SK-MEL-28 melanoma = system: SK-MEL-28 melanoma
BT-549 breast = system: BT-549 breast
OVCAR-4 ovarian = system: OVCAR-4 ovarian
OVCAR-3 ovarian = system: OVCAR-3 ovarian
SNB-19 CNS = system: SNB-19 CNS

## CC[C@@]1(O)C(=O)OCc2c1cc1n(c2=O)Cc2c-1nc1ccccc1c2/C=N\NC(=O)C(N)CS (stereo partly specified)
M14 melanoma
  TGI: 10.5 µM
SR leukemia
  TGI: 1.04 µM
RPMI-8226 leukemia
  TGI: > 100 µM
OVCAR-5 ovarian
  TGI: > 100 µM
HL-60(TB) leukemia
  TGI: > 100 µM
MDA-MB-231 breast
  TGI: > 100 µM
SF-268 CNS
  TGI: > 100 µM
MDA-N
  TGI: > 100 µM
SW-620 colon
  TGI: > 100 µM
PC-3 prostate
  TGI: > 100 µM
HT29 colon
  TGI: > 100 µM
SK-MEL-28 melanoma
  TGI: > 100 µM
BT-549 breast
  TGI: > 100 µM
OVCAR-4 ovarian
  TGI: > 100 µM
OVCAR-3 ovarian
  TGI: > 100 µM
SNB-19 CNS
  TGI: > 31.6 µM

## CCN(CC)C(=S)SNCCc1ccc(S(N)(=O)=O)cc1
M14 melanoma
  TGI: 23.1 µM
SR leukemia
  TGI: > 49.4 µM
RPMI-8226 leukemia
  TGI: 38.6 µM
OVCAR-5 ovarian
  TGI: 30.4 µM
HL-60(TB) leukemia
  TGI: > 67.2 µM
MDA-MB-231 breast
  TGI: 30.4 µM
SF-268 CNS
  TGI: 35.9 µM
MDA-N
  TGI: 40.6 µM
SW-620 colon
  TGI: 36.7 µM
PC-3 prostate
  TGI: 26.9 µM
HT29 colon
  TGI: 27.1 µM
SK-MEL-28 melanoma
  TGI: 25.8 µM
BT-549 breast
  TGI: 30 µM
OVCAR-4 ovarian
  TGI: 35.6 µM
OVCAR-3 ovarian
  TGI: 43.9 µM
SNB-19 CNS
  TGI: 50.9 µM

## CC(C)OC(=O)c1ccc(CCC2=CC(=O)C(Br)=CC2=O)cc1
M14 melanoma
  TGI: 31.2 µM
SR leukemia
  TGI: > 100 µM
RPMI-8226 leukemia
  TGI: 43.3 µM
OVCAR-5 ovarian
  TGI: 42.1 µM
HL-60(TB) leukemia
  TGI: 9.25 µM
MDA-MB-231 breast
  TGI: 31.1 µM
SF-268 CNS
  TGI: 32.3 µM
MDA-N
  TGI: 30.9 µM
SW-620 colon
  TGI: 29.2 µM
PC-3 prostate
  TGI: 31.8 µM
HT29 colon
  TGI: 31.8 µM
SK-MEL-28 melanoma
  TGI: 32.7 µM
BT-549 breast
  TGI: 16.8 µM
OVCAR-4 ovarian
  TGI: 23.1 µM
OVCAR-3 ovarian
  TGI: 29 µM
SNB-19 CNS
  TGI: 29.2 µM

## Cc1ccccc1NC(=S)N/N=C(/c1ccccc1)c1ccccn1
M14 melanoma
  TGI: 1.91 µM
SR leukemia
  TGI: > 21.2 µM
RPMI-8226 leukemia
  TGI: 10.2 µM
OVCAR-5 ovarian
  TGI: 10.6 µM
HL-60(TB) leukemia
  TGI: 1.24 µM
MDA-MB-231 breast
  TGI: 12.7 µM
SF-268 CNS
  TGI: 14.8 µM
MDA-N
  TGI: 14.1 µM
SW-620 colon
  TGI: 15.4 µM
PC-3 prostate
  TGI: 13.6 µM
HT29 colon
  TGI: 15.8 µM
SK-MEL-28 melanoma
  TGI: 16.8 µM
BT-549 breast
  TGI: 18.5 µM
OVCAR-4 ovarian
  TGI: 20.8 µM
OVCAR-3 ovarian
  TGI: 10.5 µM
SNB-19 CNS
  TGI: 16.5 µM

## O=C(Nc1ccc2ccccc2c1)Nn1cnnc1
M14 melanoma
  TGI: > 100 µM
SR leukemia
  TGI: > 100 µM
RPMI-8226 leukemia
  TGI: > 100 µM
OVCAR-5 ovarian
  TGI: > 100 µM
HL-60(TB) leukemia
  TGI: > 100 µM
MDA-MB-231 breast
  TGI: > 100 µM
SF-268 CNS
  TGI: > 100 µM
MDA-N
  TGI: > 100 µM
SW-620 colon
  TGI: > 100 µM
PC-3 prostate
  TGI: > 100 µM
HT29 colon
  TGI: > 100 µM
SK-MEL-28 melanoma
  TGI: > 100 µM
BT-549 breast
  TGI: > 100 µM
OVCAR-4 ovarian
  TGI: > 100 µM
OVCAR-3 ovarian
  TGI: > 100 µM
SNB-19 CNS
  TGI: > 100 µM

## O=C([C@H](O)[C@@H](O)c1ccc(Br)cc1)C12CC3CC(CC(C3)C1)C2
M14 melanoma
  TGI: 37.5 µM
SR leukemia
  TGI: > 100 µM
RPMI-8226 leukemia
  TGI: > 100 µM
OVCAR-5 ovarian
  TGI: > 72.9 µM
HL-60(TB) leukemia
  TGI: > 26.5 µM
MDA-MB-231 breast
  TGI: > 43 µM
SF-268 CNS
  TGI: > 70.6 µM
MDA-N
  TGI: > 100 µM
SW-620 colon
  TGI: > 38.4 µM
PC-3 prostate
  TGI: 24.5 µM
HT29 colon
  TGI: > 61.9 µM
SK-MEL-28 melanoma
  TGI: > 68.6 µM
BT-549 breast
  TGI: 24 µM
OVCAR-4 ovarian
  TGI: > 100 µM
OVCAR-3 ovarian
  TGI: 32.4 µM
SNB-19 CNS
  TGI: > 90.4 µM

## O=C1c2ccccc2C2(c3ccc(Cl)cc3)NCc3ccccc3CN12 (stereo unspecified)
M14 melanoma
  TGI: 34 µM
SR leukemia
  TGI: > 100 µM
RPMI-8226 leukemia
  TGI: 75.2 µM
OVCAR-5 ovarian
  TGI: 58.1 µM
HL-60(TB) leukemia
  TGI: 40.6 µM
MDA-MB-231 breast
  TGI: > 100 µM
SF-268 CNS
  TGI: > 100 µM
MDA-N
  TGI: > 100 µM
SW-620 colon
  TGI: > 100 µM
PC-3 prostate
  TGI: 51.3 µM
HT29 colon
  TGI: 28.5 µM
SK-MEL-28 melanoma
  TGI: > 100 µM
BT-549 breast
  TGI: > 100 µM
OVCAR-4 ovarian
  TGI: 79.3 µM
OVCAR-3 ovarian
  TGI: 26.6 µM
SNB-19 CNS
  TGI: 51.6 µM

## COc1ccc(N2CCN(c3ccc4c(c3)NCC(=O)N4)CC2)cc1
M14 melanoma
  TGI: > 100 µM
SR leukemia
  TGI: 44.4 µM
RPMI-8226 leukemia
  TGI: 67.5 µM
OVCAR-5 ovarian
  TGI: > 100 µM
HL-60(TB) leukemia
  TGI: 47.5 µM
MDA-MB-231 breast
  TGI: > 100 µM
SF-268 CNS
  TGI: > 100 µM
MDA-N
  TGI: > 100 µM
SW-620 colon
  TGI: > 100 µM
PC-3 prostate
  TGI: > 100 µM
HT29 colon
  TGI: > 100 µM
SK-MEL-28 melanoma
  TGI: > 100 µM
BT-549 breast
  TGI: > 100 µM
OVCAR-4 ovarian
  TGI: 77.3 µM
OVCAR-3 ovarian
  TGI: > 100 µM
SNB-19 CNS
  TGI: > 100 µM

## CN(N)C(=O)NCCCl
M14 melanoma
  TGI: > 100 µM
SR leukemia
  TGI: > 100 µM
RPMI-8226 leukemia
  TGI: > 100 µM
OVCAR-5 ovarian
  TGI: > 100 µM
HL-60(TB) leukemia
  TGI: > 100 µM
MDA-MB-231 breast
  TGI: > 100 µM
SF-268 CNS
  TGI: > 100 µM
MDA-N
  TGI: > 100 µM
SW-620 colon
  TGI: > 100 µM
PC-3 prostate
  TGI: > 100 µM
HT29 colon
  TGI: > 100 µM
SK-MEL-28 melanoma
  TGI: > 100 µM
BT-549 breast
  TGI: > 100 µM
OVCAR-4 ovarian
  TGI: > 100 µM
OVCAR-3 ovarian
  TGI: > 100 µM
SNB-19 CNS
  TGI: > 100 µM

## O=C(c1ccc(Cl)cc1)N(Cc1cccnc1)C(=S)N(Cc1cccnc1)C(=O)c1ccc(Cl)cc1
M14 melanoma
  TGI: 59.7 µM
SR leukemia
  TGI: > 100 µM
RPMI-8226 leukemia
  TGI: > 100 µM
OVCAR-5 ovarian
  TGI: > 100 µM
HL-60(TB) leukemia
  TGI: 85.2 µM
MDA-MB-231 breast
  TGI: 59.3 µM
SF-268 CNS
  TGI: 79.5 µM
MDA-N
  TGI: 56.6 µM
SW-620 colon
  TGI: > 100 µM
PC-3 prostate
  TGI: 90.3 µM
HT29 colon
  TGI: 76.9 µM
SK-MEL-28 melanoma
  TGI: > 100 µM
BT-549 breast
  TGI: 51 µM
OVCAR-4 ovarian
  TGI: 79.7 µM
OVCAR-3 ovarian
  TGI: > 100 µM
SNB-19 CNS
  TGI: > 100 µM

## CC(=O)NC1C(OCc2ccccc2)OC(CO)C(O)C1OCC(=O)NC(C)C(=O)NC(CCC(=O)NCCCCCC(=O)Nc1ccc2c(c1)CN1C(=O)c3ccccc3C1=N2)C(N)=O (stereo unspecified)
M14 melanoma
  TGI: > 100 µM
SR leukemia
  TGI: 42.5 µM
RPMI-8226 leukemia
  TGI: > 100 µM
OVCAR-5 ovarian
  TGI: > 100 µM
HL-60(TB) leukemia
  TGI: > 100 µM
MDA-MB-231 breast
  TGI: > 100 µM
SF-268 CNS
  TGI: > 100 µM
MDA-N
  TGI: > 100 µM
SW-620 colon
  TGI: > 100 µM
PC-3 prostate
  TGI: > 100 µM
HT29 colon
  TGI: > 100 µM
SK-MEL-28 melanoma
  TGI: > 100 µM
BT-549 breast
  TGI: > 100 µM
OVCAR-4 ovarian
  TGI: > 100 µM
OVCAR-3 ovarian
  TGI: > 100 µM
SNB-19 CNS
  TGI: > 100 µM

## Cc1cc(=O)c2c(O)c3c(O)cc(O)c4c5c(O)cc(O)c6c(O)c7c(=O)cc(C)c8c1c2c(c34)c(c65)c78
M14 melanoma
  TGI: > 100 µM
SR leukemia
  TGI: > 100 µM
RPMI-8226 leukemia
  GI50: > 100 µM and 22.3 µM
  TGI: > 100 µM
OVCAR-5 ovarian
  GI50: > 100 µM and 24.7 µM
  TGI: > 100 µM and 45.3 µM
HL-60(TB) leukemia
  GI50: 11.7 µM
  TGI: > 100 µM and 30.7 µM
MDA-MB-231 breast
  TGI: > 100 µM
SF-268 CNS
  TGI: > 100 µM
MDA-N
  TGI: > 100 µM
SW-620 colon
  TGI: > 100 µM
PC-3 prostate
  TGI: > 100 µM
HT29 colon
  GI50: > 100 µM and 19.2 µM
  TGI: > 100 µM and 43.2 µM
SK-MEL-28 melanoma
  TGI: > 100 µM
BT-549 breast
  TGI: > 100 µM
OVCAR-4 ovarian
  TGI: > 100 µM
OVCAR-3 ovarian
  TGI: > 100 µM
SNB-19 CNS
  TGI: > 100 µM
